The text below walks through data of publication PMC12040169 (PLOS Biology, 2025).

The nature of the first data set: in vitro. The note with it: human, hela cells, % viability.
Broadly, the viability is a read-out of living cells in per cent, often relative to untreated cells. On to `COc1cc2c(c(OC)c1OC)C(c1ccccc1C)CC(=O)N2` (centres unmarked) [CBK288205], for which the viability at 28.5 h, 10 µM is 109%. The same measure, in the same setting: next, `CC(Oc1ccc(Cl)cc1)C(=O)Nc1ncccn1` (centres unmarked) [CBK288206]: 96.5%; `Cc1noc2nc(-c3cccnc3)cc(C(=O)O)c12` [CBK288207]: 92.4%. Still for that read-out and setting: as for `O=C(CC12CC3CC(CC(C3)C1)C2)Nc1nc[nH]n1` [CBK288208], the figure is 117%. `CC(C)c1cc2c(s1)NC(c1ccccc1)NC2=O` (centres unmarked) [CBK288209]: the viability at 28.5 h, 10 µM was 92.9%. Still for that read-out and setting: next, `O=C(Nc1nc2ccccc2[nH]1)NC1CCCCC1` [CBK288210]: 86.1%. On the same count and under the same terms, as for `O=C(CSc1ccccc1)Nc1nccs1` [CBK288213], the figure is 109%. For `CCn1nc(C)c(C2NC(=O)c3ccccc3N2)c1C` (centres unmarked) [CBK288214], the viability at 28.5 h, 10 µM was found to be 88.6%. The same measure, in the same setting: as for `CCOc1cc(C)c(-c2cc(N)[nH]n2)cc1OCC` [CBK288216], the figure is 85.9%. The same measure, in the same setting: next, `Cc1ccccc1NC(=O)c1cnn2cccnc12` [CBK288217]: 90.3%; `Cc1ccnc(SCC(=O)N2CCc3ccccc3C2)n1` [CBK288218]: 91.7%.

In the case of `Cc1nc2n(n1)C(C(=O)Nc1ccc(C)c(C)c1)CC(=O)N2` (centres unmarked) [CBK288223], the viability at 28.5 h, 10 µM was 105%.

Regarding `COc1ccc(CCC(=O)Nc2ncn(Cc3cccc(C)c3)n2)cc1` [CBK288227], the viability at 28.5 h, 10 µM amounted to 91.7%. `O=C(O)c1ccc(-n2ncc3ccccc3c2=O)cc1` [CBK288229]: the viability at 28.5 h, 10 µM was found to be 111%. Same read-out and setting: next, `Cc1nc2n(n1)C(c1ccccn1)C1=C(CC(C)CC1=O)N2` (centres unmarked) [CBK288230]: 82.9%; `COc1ccc(-c2c(-c3ccc(F)cc3)[nH]c3[nH]c(=O)[nH]c(=O)c23)cc1` [CBK288232]: 111%.

`COc1ccc(CCNC(=O)c2ccn[nH]2)cc1OC` [CBK288234]: the viability at 28.5 h, 10 µM was determined as 92.2%. Still for that read-out and setting: next, `O=C(Nc1cccc(Cl)c1Cl)c1cnccn1` [CBK288243]: 105%; `CCc1noc(C)c1C(=O)Nc1ncc(C)s1` [CBK288244]: 95.4%. The same measure, in the same setting: as for `O=C(Nc1cccnc1)c1ccc(F)cc1Cl` [CBK288246], the figure is 89.9%; as for `COc1ccccc1N1CCN(C(=O)c2c(Cl)cnn2C)CC1` [CBK288247], 94.3%.

On to `COc1ccc(C(C)(C)C)cc1NC(=O)c1ccncc1` [CBK288248], for which the viability at 28.5 h, 10 µM was determined as 92%. On the same count and under the same terms, as for `Cc1cnc(NC(=O)Cc2ccc(F)cc2)s1` [CBK288249], the figure is 99.9%; as for `Cc1ccc(OC(C)C(=O)Nc2cc(C(C)(C)C)on2)cc1C` (centres unmarked) [CBK288251], 107%. The same measure, in the same setting: next, `O=c1c2ccccc2n2c(=O)[nH]nc2n1-c1ccccc1` [CBK288352]: 104%. On the same count and under the same terms, as for `COc1cc2c(cc1OC)C1=NNC(=O)C1=NC(C)(C)C2` [CBK288353], the figure is 22.3%.

Regarding `COc1ccc(-c2cc(=O)[nH]c(=S)s2)cc1` [CBK288355], the viability at 28.5 h, 10 µM was 90.5%. In the case of `CSc1ccc(-c2nc(C)c(C(C)=O)n2O)cc1` [CBK288356], the viability at 28.5 h, 10 µM is 92.5%.

For the compound `CCCCC(=O)NCCc1ccc(S(N)(=O)=O)cc1` [CBK288360], the viability at 28.5 h, 10 µM came out at 91.5%.

Turning to `O=c1c(O)c(-c2ccc(F)cc2)oc2ccccc12` [CBK288369], the viability at 28.5 h, 10 µM worked out at 72.4%. Turning to `O/N=C1\CC(c2ccccc2)Oc2ccc(Cl)cc21` (centres unmarked) [CBK288370], the viability at 28.5 h, 10 µM was 91.1%. Same read-out and setting: next, `COc1ccc(Cc2n[nH]c(=S)n2-c2cccnc2)cc1` [CBK288373]: 85.5%; `CC(C)c1n[nH]c(=S)n1C1CCc2ccccc21` (centres unmarked) [CBK288374]: 87.1%. The same measure, in the same setting: next, `CC(Oc1cc(Cl)ccc1Cl)c1nnc(S)n1C` (centres unmarked) [CBK288376]: 84.8%; `Cc1cc(C)cc(Nc2cc(C)n3c(=O)[nH]nc3n2)c1` [CBK288380]: 91.8%; `Cc1cc(=O)[nH]c2c1c(=O)[nH]n2C1CCCCCC1` [CBK288381]: 80.8%. With `FC(F)Oc1ccc(-c2ccnc(S)n2)cc1` [CBK288385], the viability at 28.5 h, 10 µM is 91.9%. The same measure, in the same setting: next, `O=c1c2ccccc2nc(S)n1CC(O)c1ccccc1` (centres unmarked) [CBK288386]: 85.8%. `Fc1ccc(C2NC(S)=NC3=C2N2CCC3CC2)cc1` (centres unmarked) [CBK288390]: the viability at 28.5 h, 10 µM turned out to be 95.4%.

Consider `SC1=NC2(CCCC2)NN1c1ccc(Cl)cc1` [CBK288391], for which the viability at 28.5 h, 10 µM stood at 83.2%. Same read-out and setting: next, `O=c1cc(CN2CCN(c3ccccc3)CC2)occ1O` [CBK288392]: 89%; `CN1CCN(Cc2oc(CO)cc(=O)c2O)CC1` [CBK288394]: 89.6%. Turning to `Cc1cc(Cl)ccc1OCCCc1nnc(S)n1C` [CBK288396], the viability at 28.5 h, 10 µM was determined as 85.1%.

As for `CCCOC(=O)N(O)c1ccc(Cl)c(Cl)c1` [CBK288400], the viability at 28.5 h, 10 µM came to 94.4%. On the same count and under the same terms, next, `O=C(O)c1cccc(Cn2c(C3CC3)n[nH]c2=S)c1` [CBK288401]: 87.1%. On the same count and under the same terms, as for `O=c1cc2nc(-c3ccccc3F)[nH]c(=S)n2[nH]1` [CBK288402], the figure is 95.5%; as for `O=c1nc(CNc2ccc(Br)cc2)[nH][nH]1` [CBK288403], 86.2%; as for `NS(=O)(=O)c1ccc(CCNC(=O)C2CC2)cc1` [CBK288407], 107%. The same measure, in the same setting: next, `CCC(CC)Oc1ccc(C2(C)NC(=O)NC2=O)cc1` (centres unmarked) [CBK288409]: 96.4%; `OCn1nc(-c2ccc(Cl)cc2Cl)oc1=S` [CBK288410]: 107%; `Cn1c2ccccc2c2ncn(CCS)c(=O)c21` [CBK288412]: 114%. With `COc1cc(OC)cc(-c2[nH][nH]c(=O)c2CCN)c1` [CBK288414], the viability at 28.5 h, 10 µM was 110%. As for `O=C1CC(N(O)c2ccccc2)C(=O)N1c1ccc(F)cc1` (centres unmarked) [CBK288419], the viability at 28.5 h, 10 µM was 104%. On the same count and under the same terms, next, `NS(=O)(=O)c1ccc(CN2CCCC2=O)cc1` [CBK288420]: 108%; `Sc1nnc(-c2ccncc2)n1C1CCCCC1` [CBK288421]: 105%; `Cc1cc(S)n2nc(C)c(-c3ccccc3)c2n1` [CBK288423]: 99%. The same measure, in the same setting: next, `O=C(NS(=O)(=O)c1ccccc1)c1ccccc1` [CBK288429]: 88.2%; `O=C1N(c2cccc(Cl)c2)Cc2nc(=O)[nH]n21` [CBK288430]: 85.1%; `O=C(O)C(=O)N1CCN(C(=O)c2cc3ccccc3[nH]2)CC1` [CBK288433]: 107%. The same measure, in the same setting: next, `CN(C)CCCNC(=O)c1ccnc(/C=N/O)c1` [CBK288434]: 101%. For the compound `O=C(CCCOc1ccc(Cl)cc1Cl)NO` [CBK288436], the viability at 28.5 h, 10 µM was found to be 81.7%. Same read-out and setting: next, `S=C1C=C(c2ccccc2)Nc2ccccc2N1` [CBK288438]: 87.2%; `O=c1[nH]nc2c(SCc3ccccc3)nccn12` [CBK288440]: 90.5%; `CCOC(=O)N1CCN(c2cc3[nH]c(S)nc3cc2F)CC1` [CBK288444]: 89.9%.

With `Cc1cc(S)c2cc(Br)ccc2n1` [CBK288445], the viability at 28.5 h, 10 µM stood at 80.5%. The same measure, in the same setting: next, `NS(=O)(=O)c1cccnc1NCc1ccccc1` [CBK288448]: 85.7%; `O=c1[nH]nc2c(S(=O)(=O)N3CCCCC3)cccn12` [CBK288450]: 74.9%; `Cc1cc(C)cc(Oc2nccn3c(=O)[nH]nc23)c1` [CBK288451]: 89.5%. With `CCN=C(S)NS(=O)(=O)c1ccc(C)cc1` [CBK288452], the viability at 28.5 h, 10 µM is 86.2%.

`Cc1cc2c(cc1Br)NC(=O)/C2=N\O` [CBK288453]: the viability at 28.5 h, 10 µM was determined as 56%.

Consider `Cc1nc(S)[nH]c(=O)c1Cc1ccc(F)cc1` [CBK288456], for which the viability at 28.5 h, 10 µM turned out to be 107%.

In the case of `Cc1cc(N2CCCC2=O)cc(C)c1S(N)(=O)=O` [CBK288458], the viability at 28.5 h, 10 µM turned out to be 89.9%. Same read-out and setting: as for `O=c1[nH]nc2ccc(S(=O)(=O)N3CCCCC3)cn12` [CBK288459], the figure is 89.5%; as for `COc1ccc(-c2c[nH]c3c(=S)[nH]cnc23)cc1` [CBK288462], 60.5%. Turning to `CC1(C)CC(=O)C2=C(C1)Nc1[nH][nH]c(=O)c1C2c1ccccn1` (centres unmarked) [CBK288463], the viability at 28.5 h, 10 µM was 92%. The same measure, in the same setting: as for `CCC(=O)NC(=S)Nc1ccc(C(=O)N2CCCC2)cc1` [CBK288464], the figure is 108%; as for `Cn1c(-c2ccccc2)c(C(=O)C(N)=O)c2ccccc21` [CBK288465], 104%; as for `NC(=O)C(=O)c1c(-c2ccccc2)cc2ccccn12` [CBK288466], 100%. On the same count and under the same terms, as for `O=c1[nH]nc2c(S(=O)(=O)N3CCOCC3)cccn12` [CBK288469], the figure is 94.1%. Turning to `O=c1[nH]nc2c(SC3CCCCC3)nccn12` [CBK288471], the viability at 28.5 h, 10 µM came to 69.4%. With `O=C(NCc1ccccn1)/C(=N/O)c1ccccc1` [CBK288472], the viability at 28.5 h, 10 µM was found to be 114%. On the same count and under the same terms, next, `S=c1nc(-c2ccccc2)n(-c2ccccc2)[nH]1` [CBK288474]: 103%; `O=C(O)c1ccc(COc2ccccc2/C=N/O)cc1` [CBK288481]: 108%. The same measure, in the same setting: as for `O=c1c2ccccc2nc(COc2ccccc2)n1O` [CBK288482], the figure is 108%; as for `FC(F)(F)c1ccc2c(c1)nc(S)n2C1CC1` [CBK288483], 86.2%; as for `O=c1c2sccc2[nH]c(=S)n1CCc1ccccc1` [CBK288486], 118%. With `CN(C)CCCNC(=O)c1ccc(/C=N/O)nc1` [CBK288489], the viability at 28.5 h, 10 µM was determined as 121%.

The data set is the same for the next values; noted with them: human, hela cells, % viability, bulk resorufin, single well.
`CCC1(c2ccccc2)C(=O)NC(=O)N(CCN2CCOCC2)C1=O` (centres unmarked) [CBK288379]: the viability at 28.5 h, 10 µM amounted to 88%. Same read-out and setting: next, `Cc1ccc(Cl)c(OC(=O)NCCOC(=O)NO)c1` [CBK288417]: 94.3%.
